This is an account of results in US20140213513A1 (Sanofi, priority 2012, published 2014).

Values after ≈ are worked out from the molar mass of the structure shown. Like-named read-outs stand apart in the source and are kept apart here. *1 amine or outer side, *2 acyl side, *3 side chain or, on linkers, in order; H or OH if unused. Where a SMILES comes first, the peptide text is derived from it. Side-chain parts run from the residue outwards. [ ]: non-standard residue; d: D form. The star is where a group is joined. γGlu = O=C(O)[C@H](CCC(=O)[*:2])N[*:1]; Stearoyl = CCCCCCCCCCCCCCCCCC(=O)*; Palmitoyl = CCCCCCCCCCCCCCCC(=O)*; Aib = CC(C)(N)C(=O)O A value given as a limit tells only on which side of the number the result lay.

For series [1], the target named is T1, human glucagon receptor (hGLUC R) (Homo sapiens, UniProt P47871).
T1 construct: expressed in transfected cells
T1 sequence (P47871 26-477): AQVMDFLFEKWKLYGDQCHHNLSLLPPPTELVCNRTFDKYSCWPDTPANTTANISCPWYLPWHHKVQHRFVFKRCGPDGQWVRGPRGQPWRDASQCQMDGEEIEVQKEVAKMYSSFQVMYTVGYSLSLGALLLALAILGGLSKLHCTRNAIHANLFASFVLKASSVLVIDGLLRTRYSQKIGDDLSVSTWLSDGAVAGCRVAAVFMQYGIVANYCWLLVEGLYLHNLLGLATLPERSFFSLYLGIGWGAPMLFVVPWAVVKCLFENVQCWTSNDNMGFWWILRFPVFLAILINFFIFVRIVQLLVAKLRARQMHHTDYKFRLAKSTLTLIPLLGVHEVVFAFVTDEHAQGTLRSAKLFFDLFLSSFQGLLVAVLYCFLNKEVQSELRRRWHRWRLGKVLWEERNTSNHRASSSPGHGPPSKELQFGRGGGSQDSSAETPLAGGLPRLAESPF
The series can be described thus: cAMP response of HEK-293 cells stably expressing human glucagon receptor (HTRF). In kind it is cell-based. As to conditions: Table 7; cAMP formation. The gist of the method: (§1)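 Cells grown overnight in DMEM/10% FBS, detached with accutase, resuspended in HBSS with 20 mM HEPES, 0.1% BSA and 2 mM IBMX at 400000 cells/ml. Test compound added and incubated 30 minutes at room temperature; cellular cAMP then measured by HTRF.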

The target in series [2] is T2, human GIP receptor (hGIP R) (Homo sapiens, UniProt P48546).
T2 construct: expressed in transfected cells
T2 sequence (P48546 22-466): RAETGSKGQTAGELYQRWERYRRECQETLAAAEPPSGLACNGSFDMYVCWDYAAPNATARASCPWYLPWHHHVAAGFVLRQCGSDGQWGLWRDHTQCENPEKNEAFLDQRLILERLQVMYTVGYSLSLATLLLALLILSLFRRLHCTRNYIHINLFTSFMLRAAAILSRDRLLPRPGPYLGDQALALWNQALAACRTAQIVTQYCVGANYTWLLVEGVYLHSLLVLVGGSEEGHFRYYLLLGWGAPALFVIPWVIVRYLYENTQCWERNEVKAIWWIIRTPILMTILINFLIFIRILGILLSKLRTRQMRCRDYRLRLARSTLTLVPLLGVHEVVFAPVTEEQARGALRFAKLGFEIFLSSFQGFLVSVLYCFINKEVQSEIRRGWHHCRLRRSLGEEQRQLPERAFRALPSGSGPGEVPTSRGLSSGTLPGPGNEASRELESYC
The series can be described thus: cAMP response of HEK-293 cells stably expressing human GIP receptor (HTRF). In kind it is cell-based. The following applies: Table 7; cAMP formation. The gist of the method:
as §1

The target in series [3] is T3, human GLP-1 receptor (hGLP-1 R) (Homo sapiens, UniProt P43220).
T3 construct: expressed in transfected cells
T3 sequence (P43220 24-463): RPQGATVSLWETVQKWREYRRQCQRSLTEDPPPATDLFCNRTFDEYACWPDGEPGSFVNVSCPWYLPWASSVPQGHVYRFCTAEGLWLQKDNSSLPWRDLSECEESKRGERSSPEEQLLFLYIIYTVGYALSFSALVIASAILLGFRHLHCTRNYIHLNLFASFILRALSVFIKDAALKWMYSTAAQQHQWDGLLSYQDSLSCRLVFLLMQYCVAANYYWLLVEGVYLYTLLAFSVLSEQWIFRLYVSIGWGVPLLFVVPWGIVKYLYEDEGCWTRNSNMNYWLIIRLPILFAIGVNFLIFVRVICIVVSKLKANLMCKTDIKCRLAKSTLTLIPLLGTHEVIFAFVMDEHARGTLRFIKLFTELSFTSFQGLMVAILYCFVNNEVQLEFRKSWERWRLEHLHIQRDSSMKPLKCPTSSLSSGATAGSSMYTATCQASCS
Briefly: cAMP response of HEK-293 cells stably expressing human GLP-1 receptor (HTRF). As to conditions: Table 7; cAMP formation. In kind it is cell-based. The method in brief:
as §1

Series [4] is described as follows: Solubility testing in buffer (HPLC-UV of supernatant). The format is physicochemical.
[5] abbreviates: pH 4.5, target concentration 1.0 mg/mL, read-out: Solubility (pH 4.5).
Where [6] appears, read: pH 7.4, target concentration 1.0 mg/mL, read-out: Solubility (pH 7.4).

Usually EC50 stands for the concentration at which the effect is half-maximal. A high value points to lower potency in that assay. By solubility is commonly meant the concentration that dissolves in the medium under given conditions. As for `CCCCCCCCCCCCCCCC(=O)N[C@@H](CCC(=O)NCCCC[C@H](NC(=O)[C@H](CCC(N)=O)NC(=O)[C@@H](NC(=O)[C@H](CO)NC(=O)[C@H](CC(C)C)NC(=O)[C@H](CC(=O)O)NC(=O)[C@H](CO)NC(=O)[C@@H](NC(=O)[C@H](Cc1ccccc1)NC(=O)[C@@H](NC(=O)CNC(=O)[C@H](CCC(N)=O)NC(=O)C(C)(C)NC(=O)[C@@H](N)Cc1ccc(O)cc1)[C@@H](C)O)[C@@H](C)O)[C@@H](C)CC)C(=O)N[C@@H](CCC(=O)O)C(=O)N[C@@H](CCCCN)C(=O)N[C@@H](CCCNC(=N)N)C(=O)N[C@@H](C)C(=O)N[C@H](C(=O)NC(C)(C)C(=O)N[C@@H](CC(C)C)C(=O)N[C@@H](Cc1ccccc1)C(=O)N[C@H](C(=O)N[C@@H](CCC(=O)O)C(=O)N[C@@H](Cc1c[nH]c2ccccc12)C(=O)N[C@@H](CC(C)C)C(=O)N[C@@H](CCCCN)C(=O)N[C@@H](C)C(=O)NCC(=O)NCC(=O)N1CCC[C@H]1C(=O)N[C@@H](CO)C(=O)N[C@@H](CO)C(=O)NCC(=O)N[C@@H](C)C(=O)N1CCC[C@H]1C(=O)N1CCC[C@H]1C(=O)N1CCC[C@H]1C(=O)N[C@@H](CO)C(N)=O)[C@@H](C)CC)C(C)C)C(=O)O` [SEQ ID NO: 24, Y-Aib-Q-G-T-F-T-S-D-L-S-I-Q-K(yE-x53)-E-K-R-A-V-Aib-L-F-I-E-W-L-K-A-G-G-P-S-S-G-A-P-P-P-S-NH2] (H-Y[Aib]QGTFTSDLSIQK([γGlu-Palmitoyl])EKRAV[Aib]LFIEWLKAGGPSSGAPPPS-NH2), the values for the EC50 in series [1], in series [2] and in series [3] were 284 pM, 10.4 pM and 19.2 pM, respectively. Also, the solubility at 2 h in series [4] (setting [5]) is more than 1000 µg/mL; in series [4] (setting [6]), 976 µg/mL (≈ 217 µM).

With `CCCCCCCCCCCCCCCC(=O)N[C@@H](CCC(=O)NCCCC[C@H](NC(=O)[C@H](CCC(N)=O)NC(=O)[C@@H](NC(=O)[C@H](CO)NC(=O)[C@H](CC(C)C)NC(=O)[C@H](CC(=O)O)NC(=O)[C@H](CO)NC(=O)[C@@H](NC(=O)[C@H](Cc1ccccc1)NC(=O)[C@@H](NC(=O)CNC(=O)[C@H](CCC(=O)O)NC(=O)C(C)(C)NC(=O)[C@@H](N)Cc1ccc(O)cc1)[C@@H](C)O)[C@@H](C)O)[C@@H](C)CC)C(=O)N[C@@H](CCC(=O)O)C(=O)N[C@@H](CCC(=O)O)C(=O)N[C@@H](CCCNC(=N)N)C(=O)N[C@@H](C)C(=O)N[C@@H](C)C(=O)N[C@@H](Cc1c[nH]cn1)C(=O)N[C@@H](CCC(=O)O)C(=O)N[C@@H](Cc1ccccc1)C(=O)N[C@H](C(=O)N[C@@H](CCC(=O)O)C(=O)N[C@@H](Cc1c[nH]c2ccccc12)C(=O)N[C@@H](CC(C)C)C(=O)N[C@@H](CCCCN)C(=O)N[C@@H](CCCNC(=N)N)C(=O)NC(C)(C)C(=O)NCC(=O)N1CCC[C@H]1C(=O)N[C@@H](CO)C(=O)N[C@@H](CO)C(=O)NCC(=O)N[C@@H](C)C(=O)N1CCC[C@H]1C(=O)N1CCC[C@H]1C(=O)N1CCC[C@H]1C(=O)N[C@@H](CO)C(N)=O)[C@@H](C)CC)C(=O)O` [SEQ ID NO: 37, Y-Aib-E-G-T-F-T-S-D-L-S-I-Q-K(yE-x53)-E-E-R-A-A-H-E-F-I-E-W-L-K-R-Aib-G-P-S-S-G-A-P-P-P-S-NH2], the EC50 in series [1] was found to be 12100 pM; in series [2], 12.1 pM; in series [3], 6.6 pM. Moreover, the solubility at 2 h in series [4] (setting [5]) and in series [4] (setting [6]) was more than 1000 µg/mL in each case.

For `CCCCCCCCCCCCCCCC(=O)N[C@@H](CCC(=O)NCCCC[C@H](NC(=O)[C@H](CCC(N)=O)NC(=O)[C@H](CCCCN)NC(=O)[C@H](CO)NC(=O)[C@H](CC(C)C)NC(=O)[C@H](CC(=O)O)NC(=O)[C@H](CO)NC(=O)[C@@H](NC(=O)[C@H](Cc1ccccc1)NC(=O)[C@@H](NC(=O)CNC(=O)[C@H](CCC(N)=O)NC(=O)C(C)(C)NC(=O)[C@@H](N)Cc1ccc(O)cc1)[C@@H](C)O)[C@@H](C)O)C(=O)N[C@@H](CCC(=O)O)C(=O)N[C@@H](CO)C(=O)N[C@@H](CCCCN)C(=O)N[C@@H](C)C(=O)N[C@@H](C)C(=O)N[C@@H](CCC(N)=O)C(=O)N[C@@H](CCC(=O)O)C(=O)N[C@@H](Cc1ccccc1)C(=O)N[C@H](C(=O)N[C@@H](CCC(=O)O)C(=O)N[C@@H](Cc1c[nH]c2ccccc12)C(=O)N[C@@H](CC(C)C)C(=O)N[C@@H](CCCCN)C(=O)N[C@@H](C)C(=O)NCC(=O)NCC(=O)N1CCC[C@H]1C(=O)N[C@@H](CO)C(=O)N[C@@H](CO)C(=O)NCC(=O)N[C@@H](C)C(=O)N1CCC[C@H]1C(=O)N1CCC[C@H]1C(=O)N1CCC[C@H]1C(=O)N[C@@H](CO)C(N)=O)[C@@H](C)CC)C(=O)O` [SEQ ID NO: 40, Y-Aib-Q-G-T-F-T-S-D-L-S-K-Q-K(yE-x53)-ESKAAQEFIEWLKAGGPSSGAPPPS-NH2] (H-Y[Aib]QGTFTSDLSKQK([γGlu-Palmitoyl])ESKAAQEFIEWLKAGGPSSGAPPPS-NH2), the EC50 in series [1] was determined as 22.6 pM; in series [2], 53.6 pM; in series [3], 5.5 pM. The solubility at 2 h in series [4] (setting [5]) amounted to 986 µg/mL (≈ 220 µM); in series [4] (setting [6]) it was 993 µg/mL (≈ 222 µM).

`CCCCCCCCCCCCCCCCCC(=O)N[C@@H](CCC(=O)NCCCC[C@H](NC(=O)[C@H](CCC(N)=O)NC(=O)[C@@H](NC(=O)[C@H](CO)NC(=O)[C@H](CC(C)C)NC(=O)[C@H](CC(=O)O)NC(=O)[C@H](CO)NC(=O)[C@@H](NC(=O)[C@H](Cc1ccccc1)NC(=O)[C@@H](NC(=O)CNC(=O)[C@H](CCC(=O)O)NC(=O)C(C)(C)NC(=O)[C@@H](N)Cc1ccc(O)cc1)[C@@H](C)O)[C@@H](C)O)[C@@H](C)CC)C(=O)N[C@@H](CCC(=O)O)C(=O)N[C@@H](CO)C(=O)N[C@@H](CCCCN)C(=O)N[C@@H](C)C(=O)N[C@@H](C)C(=O)N[C@@H](CCC(N)=O)C(=O)N[C@@H](CCC(=O)O)C(=O)N[C@@H](Cc1ccccc1)C(=O)N[C@H](C(=O)N[C@@H](CCC(=O)O)C(=O)N[C@@H](Cc1c[nH]c2ccccc12)C(=O)N[C@@H](CC(C)C)C(=O)N[C@@H](CCCCN)C(=O)N[C@@H](C)C(=O)NCC(=O)NCC(=O)N1CCC[C@H]1C(=O)N[C@@H](CO)C(=O)N[C@@H](CO)C(=O)NCC(=O)N[C@@H](C)C(=O)N1CCC[C@H]1C(=O)N1CCC[C@H]1C(=O)N1CCC[C@H]1C(=O)N[C@@H](CO)C(N)=O)[C@@H](C)CC)C(=O)O` [SEQ ID NO: 42, Y-Aib-E-G-T-F-T-S-D-L-S-I-Q-K(yE-x70)-ESKAAQEFIEWLKAGGPSSGAPPPS-NH2] (H-Y[Aib]EGTFTSDLSIQK([γGlu-Stearoyl])ESKAAQEFIEWLKAGGPSSGAPPPS-NH2): the EC50 stood at 8470 pM in series [1], 12.9 pM in series [2] and 6.2 pM in series [3]. The results for the solubility at 2 h in series [4] (setting [5]) and in series [4] (setting [6]) were more than 1000 µg/mL and 936 µg/mL (≈ 208 µM), respectively.

On to `CCCCCCCCCCCCCCCC(=O)N[C@@H](CCC(=O)NCCCC[C@H](NC(=O)[C@H](CCC(N)=O)NC(=O)[C@@H](NC(=O)[C@H](CO)NC(=O)[C@H](CC(C)C)NC(=O)[C@H](CC(=O)O)NC(=O)[C@H](CO)NC(=O)[C@@H](NC(=O)[C@H](Cc1ccccc1)NC(=O)[C@@H](NC(=O)CNC(=O)[C@H](CCC(N)=O)NC(=O)C(C)(C)NC(=O)[C@@H](N)Cc1ccc(O)cc1)[C@@H](C)O)[C@@H](C)O)[C@@H](C)CC)C(=O)N[C@@H](CC(=O)O)C(=O)N[C@@H](CCCCN)C(=O)N[C@@H](CCCNC(=N)N)C(=O)N[C@@H](CCCNC(=N)N)C(=O)N[C@@H](C)C(=O)N[C@@H](CCC(N)=O)C(=O)N[C@@H](CC(=O)O)C(=O)N[C@@H](Cc1ccccc1)C(=O)N[C@H](C(=O)N[C@@H](CCC(=O)O)C(=O)N[C@@H](Cc1c[nH]c2ccccc12)C(=O)N[C@@H](CC(C)C)C(=O)N[C@@H](CCCCN)C(=O)N[C@@H](C)C(=O)NCC(=O)NCC(=O)N1CCC[C@H]1C(=O)N[C@@H](CO)C(=O)N[C@@H](CO)C(=O)NCC(=O)N[C@@H](C)C(=O)N1CCC[C@H]1C(=O)N1CCC[C@H]1C(=O)N1CCC[C@H]1C(=O)N[C@@H](CO)C(N)=O)[C@@H](C)CC)C(=O)O` [SEQ ID NO: 53, Y-Aib-Q-G-T-F-T-S-D-L-S-I-Q-K(yE-x53)-DKRRAQDFIEWLKAGGPSSGAPPPS-NH2] (H-Y[Aib]QGTFTSDLSIQK([γGlu-Palmitoyl])DKRRAQDFIEWLKAGGPSSGAPPPS-NH2), for which the results for the EC50 in series [1], in series [2] and in series [3] were 7.9 pM, 93.2 pM and 13.6 pM, respectively. Further, the solubility at 2 h in series [4] (setting [5]) is 932 µg/mL (≈ 203 µM); in series [4] (setting [6]), 958 µg/mL (≈ 209 µM).
